In patent US6660263B2, “Oocydin and methods of use for protection of plants from Oomyocyte pathogens” (HMV Corporation, priority 2000, dated 2003):
In brackets after ≈: the same amount, converted by molar mass. Where a SMILES comes first, the peptide text is derived from it. Bridges are numbered along the chain shown (N, C = ends). [ ]: non-standard residue; d: D form. The star is where a group is joined. Tetradecanoyl(3R-OH) = CCCCCCCCCCC[C@@H](O)CC(=O)*; Asp(3S-OH) = N[C@H](C(=O)O)[C@H](O)C(=O)O; Thr(4-Cl) = N[C@H](C(=O)O)[C@H](O)CCl; aThr = C[C@H](O)[C@H](N)C(=O)O; dDab = NCC[C@@H](N)C(=O)O; Dab = NCC[C@H](N)C(=O)O; Dhb = C/C=C(\N)C(=O)O

Key:
[1] = tested on: Phytophthora parasitica; assay: MIC in PD broth, 24-well plate
[2] = tested on: Phytophthora cinnamomi; assay: MIC in PD broth, 24-well plate
[3] = tested on: Pythium ultimum; assay: MIC in PD broth, 24-well plate; format: cell-based
[4] = tested on: Phytophthora citrophora; assay: MIC in PD broth, 24-well plate; format: cell-based
[5] = tested on: Phytophthora spp.; assay: MIC in PD broth, 24-well plate; format: cell-based; conditions: the most sensitive Oomycetes
[6] = tested on: Geotrichum candidum; format: cell-based
[7] = tested on: Sclerotinia sclerotiorum; format: cell-based
[8] = tested on: Rhizoctonia solani; format: cell-based
[9] = tested on: Verticillum dahliae; format: cell-based
[10] = tested on: Alternaria tomato; format: cell-based
[11] = tested on: Aspergillus fumigatus; format: cell-based
[12] = tested on: MCF-7 (breast cancer cell line); assay: Neutral red cytotoxicity assay; format: cell-based, human; conditions: 3 days of exposure, preliminary studies
Protocol: (§1) Oocydin A was tested also against human cancer cell lines BT-20, MCF 7(American Type Culture Collection, Bethesda, Md., USA) and compared with activity against a normal human mammary human cell line (cc2551 HMEC from Clonetics, San Diego, Calif., USA). These cells were exposed to serial dilutions of oocydin A. After 3 days of exposure, the cells were stained with neutral red and the absorbance measured at 540 nm. For non-adherent cells a modification of the staining protocol of Berent, S. L. et al., (1986) Nucleic Acid Res 14, 8997-9015 was used. The results were recorded as IC50 values.

[13] = tested on: normal human mammary cell line (cc2551 HMEC); assay: Neutral red cytotoxicity assay; format: cell-based; conditions: 3 days of exposure, preliminary studies
Protocol: as §1

[14] = tested on: P. ultimum; assay: Plate bioassay of fractions on PDA; format: cell-based, Pythium ultimum; conditions: contents of the single HPLC peak (retention time 19.7 min) against P. ultimum
Protocol: Bioassays. A simple plate bioassay test was used to detect bioactivity of various fractions in the purification of oocydin. Aliquots (10-20 μl) of sample were placed on a PDA plate, dried by placement under a hood having positive airflow, and then inoculated with 0.5×0.5 cm plugs of agar containing P. ultimum. The agar plugs were placed in each of the quadrants of the plate and then incubated for 36-48 hr at 23 C. Antioomycetous activity was apparent as a zone of growth inhibition.

[15] = tested on: Candida albicans
[16] = tested on: Cryptococcus neoformans
[17] = tested on: Candida parapsilosis
[18] = tested on: Histoplasma capsulatum

## COCC(=O)N(c1c(C)cccc1C)C(C)C(=O)OC (racemic) [Metalaxyl, N-(2,6-dimethylphenyl)-N-(methoxyacetyl)-DL-alanine methyl ester, reference compound]
[1]; Phytophthora nicotianae, read-out: Metalaxyl MIC
  MIC: 0.06 µg/mL (≈ 0.215 µM)
[2]; Phytophthora cinnamomi, read-out: Metalaxyl MIC
  MIC: 0.06 µg/mL (≈ 0.215 µM)

## CC(=O)OC1CC(=O)O[C@H]2C[C@H](CC/C(Cl)=C\C/C=C\1C)O[C@H]2[C@@H](O)/C=C(\C)CC(=O)O (stereo partly shown) [oocydin A]
[3]; Test 1, no visible growth after 48 or 72 hr at 23° C.
  Oocydin MIC Test 1: 0.11 µg/mL
[3]; Test 2, no visible growth after 48 or 72 hr at 23° C.
  Oocydin MIC Test 2: 0.39 µg/mL
[4]; P. citrophora
  Minimum inhibitory concentration (MIC): circa 0.03 μg ml^−1
[4]; Phytophthora citrophora, Test 1
  Oocydin MIC Test 1: 0.03 µg/mL
[4]; Phytophthora citrophora, Test 2
  Oocydin MIC Test 2: 0.02 µg/mL
[5]
  MIC: approximately 0.03 μg ml^−1
[6]
  activity on PDA plates: inactive
[7]
  activity on PDA plates: only slight inhibition of growth
[8]
  activity on PDA plates: only slight inhibition of growth
[9]
  activity in plate tests: no activity
[10]
  activity in plate tests: no activity
[11]
  effect on growth: no effect
[12]
  IC50: 0.42 µg/mL (≈ 0.892 µM)
[13]
  IC50: 0.6 µg/mL (≈ 1.27 µM)
[14]
  bioassay activity: active
[15]
  effect on growth: no effect
[16]
  effect on growth: no effect
[17]
  effect on growth: no effect
[18]
  effect on growth: no effect
[1]; Phytophthora parasitica
  Minimum inhibitory concentration (MIC): circa 0.03 μg ml^−1
[1]; Phytophthora parasitica, Test 1
  Oocydin MIC Test 1: 0.03 µg/mL
[1]; Phytophthora parasitica, Test 2
  Oocydin MIC Test 2: 0.05 µg/mL
[2]; P. cinnamomi
  Minimum inhibitory concentration (MIC): circa 0.03 μg ml^−1
[2]; Phytophthora cinnamomi, Test 1
  Oocydin MIC Test 1: 0.03 µg/mL
[2]; Phytophthora cinnamomi, Test 2
  Oocydin MIC Test 2: 0.02 µg/mL

## C/C=C1\NC(=O)[C@H]([C@H](C)O)NC(=O)[C@H](CCN)NC(=O)[C@H](CCCCN)NC(=O)[C@H](CC(=O)O)NC(=O)[C@@H](CCN)NC(=O)[C@@H](NC(=O)C[C@H](O)CCCCCCCCCCC)COC(=O)[C@H]([C@H](O)CCl)NC(=O)[C@H]([C@H](O)C(=O)O)NC1=O [pseudomycin B, reference compound] ({Tetradecanoyl(3R-OH)}-S[dDab]DK[Dab][aThr][Dhb][Asp(3S-OH)][Thr(4-Cl)]; ester 1-C; N-terminus assumed)
[15]
  MIC: < 1.0 µg/mL
[16]
  MIC: < 1.0 µg/mL
[17]
  MIC: < 1.0 µg/mL
[18]
  MIC: < 1.0 µg/mL
